According to paper PMC7589326, “Synthesis and Pharmacological Evaluation of Fluorinated Quinoxaline‐Based κ‐Opioid Receptor (KOR) Agonists Designed for PET Studies” (Chemmedchem, 2020):
Like-named read-outs stand apart in the source and are kept apart here.

Assays:
σ2 receptor [1] = molecular target: T1, σ2 receptor (Rattus norvegicus, UniProt Q5U3Y7); settings: cited from earlier work
T1 construct: tissue Harlan-Winkelmann, Borchen, Germany; host or cells: rat liver membrane homogenate
T1 sequence (Q5U3Y7 1-176): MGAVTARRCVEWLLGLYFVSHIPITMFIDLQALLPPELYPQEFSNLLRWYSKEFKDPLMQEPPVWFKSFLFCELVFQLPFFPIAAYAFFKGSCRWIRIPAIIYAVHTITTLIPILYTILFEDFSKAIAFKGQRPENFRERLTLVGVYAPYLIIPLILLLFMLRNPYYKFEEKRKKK

MOR [2] = molecular target: T2, MOR (Cavia porcellus, UniProt A0ACM8Q262); settings: cited from earlier work
T2 sequence (A0ACM8Q262 1-400): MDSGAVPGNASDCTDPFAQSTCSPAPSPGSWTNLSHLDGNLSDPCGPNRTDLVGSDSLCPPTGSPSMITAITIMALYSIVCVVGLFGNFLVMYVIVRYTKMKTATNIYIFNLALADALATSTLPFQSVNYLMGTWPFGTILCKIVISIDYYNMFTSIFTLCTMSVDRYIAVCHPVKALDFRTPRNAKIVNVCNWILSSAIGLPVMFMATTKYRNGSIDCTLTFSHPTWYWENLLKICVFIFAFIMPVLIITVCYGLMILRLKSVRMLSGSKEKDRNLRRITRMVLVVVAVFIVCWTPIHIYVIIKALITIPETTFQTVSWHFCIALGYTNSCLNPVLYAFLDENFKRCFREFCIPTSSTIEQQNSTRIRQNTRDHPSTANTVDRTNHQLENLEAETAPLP

σ1 receptor [3] = molecular target: T3, σ1 receptor (Cavia porcellus, UniProt Q60492); settings: cited from earlier work
T3 construct: Membrane preparations from guinea pig brain were used in the MOR and σ1 assay; tissue Harlan-Winkelmann, Borchen, Germany; host or cells: guinea pig brain membrane homogenate
T3 sequence (Q60492 whole entry): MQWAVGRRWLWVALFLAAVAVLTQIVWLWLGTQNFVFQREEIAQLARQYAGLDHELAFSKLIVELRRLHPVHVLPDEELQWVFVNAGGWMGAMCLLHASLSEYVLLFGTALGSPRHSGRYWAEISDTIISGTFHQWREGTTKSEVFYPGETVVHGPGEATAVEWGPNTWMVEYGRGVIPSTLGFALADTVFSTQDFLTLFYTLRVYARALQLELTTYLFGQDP

MOR [4] = molecular target: T2, MOR; assay: biochemical; format: binding, guinea pig; settings: for inhibition at 1 µM: read-out: % inhibition at 1 μM MOR [3H]DAMGO
[5] = Stability in human serum (radio-HPLC); format: in vitro ADME; settings: 90 min, 37 °C
Description: (§1) Enzymes present in blood serum could be able to transform the radioactive PET tracer [^18F]‐2. Therefore, the blood serum stability of [^18F]‐2 was investigated before testing the tracer in vivo. [^18F]‐2 was incubated with mouse and human serum for 90 min at 37 °C.
(§2) The serum stability of radioligands [^18F]‐2 and [^18F]‐14c was evaluated by incubation in mouse or human serum at 37 °C for up to 90 min. An aliquot of formulated [^18F]‐2 or [^18F]‐14c (20 μL, ca. 6.6 MBq and ca.10 MBq, respectively) was added to a sample of mouse serum (200 μL) or human serum (200 μL), and the mixtures were incubated at 37 °C. Samples of 20 μL each were taken after periods of 10, 30, 60 and 90 min and ice‐cold DNA‐grade CH3CN (100 μL) were added. After centrifugation for ≥5 min, the supernatant was analyzed by analytical radio‐HPLC B, method B.

[6] = In vivo biodistribution, small animal PET in C57BL/6 mice; set-up: species or system mouse
Description: Next, the distribution of the PET tracer [^18F]‐2 in mice was investigated. For this purpose, [^18F]‐2 was injected into 15‐week‐old C57BL/6 mice. […] Already after 2 min the radioactivity was almost completely found in liver, kidneys and bladder. In the liver, the radioactivity remained almost constant over the period of 90 min (Figure 6). Besides a transient local increase in radioactivity in the submandibular and harderian glands, no significant accumulation of [^18F]‐2 in non‐excreting organs such as heart, lung and muscles as indicator for unspecific binding could be detected.
Adult C57BL/6 mice (n=2 male, 15 weeks, 28 g for [^18F]‐2; n=2, male, 10 weeks, 25 g for [^18F]‐14c) were anesthetized by isoflurane/O2 and one lateral tail vein was cannulated BY using a 27 G needle connected to 15 cm polyethylene catheter tubing. Radiotracers (∼500 kBq/g bodyweight, 15 MBq) were injected as a bolus (50 μL compound flushed with 100 μL saline) via the tail vein and subsequent PET scanning was performed.
Small Animal PET Scanning. PET experiments were carried out using a submillimeter high resolution (0.7 mm full width at half‐maximum) small animal scanner (32 module quadHIDAC, Oxford Positron Systems Ltd., Oxford, UK) with uniform spatial resolution (<1 mm) over a large cylindrical field (165 mm diameter, 280 mm axial length). List‐mode data were acquired for 90 min and reconstructed into dynamic time frames using an iterative reconstruction algorithm. Subsequently, the scanning bed was transferred to the computed tomography (CT) scanner (Inveon, Siemens Medical Solutions, U.S.), and a CT acquisition with a spatial resolution of 80 μm was performed for each mouse. Reconstructed image data sets were coregistered based on extrinsic markers attached to the multimodal scanning bed and the in‐house developed image analysis software MEDgical. Three‐dimensional volumes of interest (VOIs) were defined over the respective organs in CT data sets, transferred to the coregistered PET data, and analyzed quantitatively. Regional uptake was calculated as percentage of injected dose by dividing counts per milliliter in the VOI by total counts in the mouse multiplied by 100 (%ID/mL).

[7] = Stability in mouse serum (radio-HPLC); format: in vitro ADME; settings: 90 min, 37 °C
Description: as §1, §2

[8] = Distribution coefficient logD7.4, shake flask method with radioligand; format: physicochemical
Description: The distribution coefficient at pH 7.4 (logD7.4) was determined by a shake flask method using the radioligand [^18F]‐2. After distribution of [^18F]‐2 between n‐octanol and phosphate buffered saline (pH 7.4) layers, the radioactivity in both layers was determined and set in ratio. According to this procedure, a logD7.4 value of 1.37±0.06 was determined indicating a moderate lipophilic compound, which should be able to penetrate into the central nervous system.
The lipophilicity of radioligands [^18F]‐2 and [^18F]‐14c was assessed by determination of the water n‐octan‐1‐ol distribution coefficient (logD) following a published procedure.57 In brief, approximately 3.2 MBq of radioligand [^18F]‐2 and approximately 0.3 MBq of radiotracer [^18F]‐14c, respectively, were mixed with equal amounts (0.6 mL) of phosphate buffered saline (PBS, pH 7.4) and n‐octan‐1‐ol. The resulting biphasic system was mixed vigorously for 3 min at room temperature and subsequently, the tubes were centrifuged (≥5 min). Then 400 μL of the n‐octan‐1‐ol layer was separated and 400 μL of PBS were added. The mixture was mixed vigorously for 10 min at room temperature followed by centrifugation of the tubes for≥5 min. Two samples of 100 μL of each layer were counted in a γ‐counter (2480 Automatic Gamma Counter Wizard^2, Perkin‐Elmer). The distribution coefficient was determined by calculating the ratio cpm(n‐octan‐1‐ol)/cpm(PBS) and expressed as logD 7.4 (log(cpmn‐octanol/cpmPBS)). Three independent experiments were performed in duplicate and data were provided as mean values ±standard deviation.

KOR [9] = molecular target: T4, KOR (Cavia porcellus, UniProt P41144); assay: biochemical; format: binding, guinea pig
T4 construct: The thawed guinea pig brain membrane preparation (about 100 μg of the protein) was incubated; tissue Harlan-Winkelmann, Borchen, Germany; host or cells: guinea pig brain membrane homogenate
T4 sequence (P41144 whole entry): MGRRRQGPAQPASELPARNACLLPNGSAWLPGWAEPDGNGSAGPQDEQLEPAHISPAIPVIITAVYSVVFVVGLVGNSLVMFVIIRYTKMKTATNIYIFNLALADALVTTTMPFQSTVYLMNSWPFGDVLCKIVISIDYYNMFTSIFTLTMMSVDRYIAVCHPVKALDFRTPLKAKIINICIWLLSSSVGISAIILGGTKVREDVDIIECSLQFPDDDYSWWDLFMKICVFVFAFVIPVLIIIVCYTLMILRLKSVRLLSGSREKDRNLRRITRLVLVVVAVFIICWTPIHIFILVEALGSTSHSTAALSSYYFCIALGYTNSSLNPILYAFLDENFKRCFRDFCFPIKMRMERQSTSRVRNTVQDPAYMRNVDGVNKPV

σ1 receptor [10] = molecular target: T3, σ1 receptor; assay: biochemical; format: binding, guinea pig; settings: read-out: % inhibition at 1 μM σ1 (+)-[3H]pentazocine
σ2 receptor [11] = molecular target: T1, σ2 receptor; assay: biochemical; format: binding; settings: for inhibition at 1 µM: read-out: % inhibition at 1 μM σ2 [3H]DTG
DOR = molecular target: T5, DOR (Rattus norvegicus, UniProt P33533); assay: biochemical; format: binding; settings: for inhibition at 1 µM: read-out: % inhibition at 1 μM DOR [3H]DPDPE
T5 construct: preparations from rat brain were employed in the DOR assay; tissue Harlan-Winkelmann, Borchen, Germany; host or cells: rat brain (Sprague Dawley) membrane homogenate
T5 sequence (P33533 whole entry): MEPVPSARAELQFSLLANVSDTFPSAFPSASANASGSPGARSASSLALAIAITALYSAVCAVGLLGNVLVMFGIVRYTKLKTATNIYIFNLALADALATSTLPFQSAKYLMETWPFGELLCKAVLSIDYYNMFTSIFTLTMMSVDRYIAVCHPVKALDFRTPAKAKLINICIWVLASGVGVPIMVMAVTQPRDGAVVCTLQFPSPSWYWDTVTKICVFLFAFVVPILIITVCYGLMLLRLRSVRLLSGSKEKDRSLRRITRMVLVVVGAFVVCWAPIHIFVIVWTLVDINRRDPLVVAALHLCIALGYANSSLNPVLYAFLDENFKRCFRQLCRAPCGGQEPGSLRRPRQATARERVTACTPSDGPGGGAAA

[12] = test system: mouse T cells (wild-type); format: cell-based
[13] = test system: DCs from KOR-deficient mice; format: cell-based, mouse
KOR [14] = molecular target: T6, KOR (Homo sapiens, UniProt P41145); assay: cell-based; set-up: expressed in transfected cells; host or cells: HTLA cells (stably expressing TEV-fused β-arrestin2)
Target sequence in this assay (P41145 whole entry, the tested form may be a part): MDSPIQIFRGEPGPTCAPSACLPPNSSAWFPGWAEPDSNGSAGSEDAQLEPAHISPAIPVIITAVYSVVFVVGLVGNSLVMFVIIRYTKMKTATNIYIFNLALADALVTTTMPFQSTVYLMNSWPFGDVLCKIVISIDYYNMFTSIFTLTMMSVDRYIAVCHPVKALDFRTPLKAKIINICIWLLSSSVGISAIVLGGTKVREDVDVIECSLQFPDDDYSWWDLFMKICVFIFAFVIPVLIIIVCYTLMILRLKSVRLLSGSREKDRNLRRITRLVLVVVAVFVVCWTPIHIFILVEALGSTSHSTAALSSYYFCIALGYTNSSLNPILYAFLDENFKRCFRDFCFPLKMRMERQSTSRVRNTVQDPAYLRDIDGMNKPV
Target sequence in this assay (P32121 whole entry partner, the tested form may be a part): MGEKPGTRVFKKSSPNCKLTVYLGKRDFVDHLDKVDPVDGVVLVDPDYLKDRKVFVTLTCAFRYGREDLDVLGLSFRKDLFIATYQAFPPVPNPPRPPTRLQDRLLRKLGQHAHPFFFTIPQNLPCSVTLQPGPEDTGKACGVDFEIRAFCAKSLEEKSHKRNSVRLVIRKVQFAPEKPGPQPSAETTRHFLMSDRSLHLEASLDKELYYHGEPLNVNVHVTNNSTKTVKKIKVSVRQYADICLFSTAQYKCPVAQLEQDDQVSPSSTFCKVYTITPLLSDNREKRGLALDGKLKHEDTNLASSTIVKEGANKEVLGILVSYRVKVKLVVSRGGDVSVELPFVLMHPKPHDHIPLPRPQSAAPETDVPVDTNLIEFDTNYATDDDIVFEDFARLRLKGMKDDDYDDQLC

mouse DCs (wild-type) = format: cell-based
KOR [15] = molecular target: T6, KOR; assay: cell-based; set-up: expressed in transfected cells; host or cells: HEK 293T (ATCC CRL-11268)
Target sequence in this assay (P41145 whole entry, the tested form may be a part): as the sequence (P41145 whole entry, the tested form may be a part) above

human DCs = format: cell-based
[16] = test system: T cells from KOR-deficient mice; format: cell-based, mouse
human T cells = format: cell-based

COC(=O)N1CCN(C(=O)Cc2ccc(Cl)c(Cl)c2)[C@@H]2[C@@H](N3CCCC3)CCC[C@@H]21 [1c]
% inhibition at 1 μM σ2 [3H]DTG (σ2 receptor [1]): 8% | % inhibition at 1 μM MOR [3H]DAMGO (MOR [2]): 0% | % inhibition at 1 μM σ1 (+)-[3H]pentazocine (σ1 receptor [3]): 0%

DAMGO [reference compound]
Kd (MOR [4]; read-out: Kd-value of radioligand, MOR assay): 0.57 nM

COC(=O)N1CCN(C(=O)Cc2ccc(Cl)c(Cl)c2)[C@@H]2[C@@H](N3CC[C@@H]([18F])C3)CCC[C@@H]21 [[^18F]‐14c, Methyl (4aR,5S,8aS)‐ and (4aS,5R,8aR)‐4‐[2‐(3,4‐dichlorophenyl)acetyl]‐5‐[(R)‐3‐[^18F]fluoropyrrolidin‐1‐yl]‐3,4,4 a,5,6,7,8,8 a‐octahydroquinoxaline‐1(2H)‐carboxylate]
stability in human serum [5]: high stability | residual radioactivity in organs ex vivo (γ-counter) ([6]; 90 min after injection): mainly present in the excretion organs and in the urine | radioactivity in the bones / defluorination ([6]; C57BL/6 mice, intravenous injection): fast defluorination | clearance from the body ([6]; C57BL/6 mice, intravenous injection, hepatic and renal pathways): fast | stability in mouse serum [7]: high stability | concentration in the n-octanol layer relative to [18F]-2 ([8]; n-octanol / PBS pH 7.4): 15 fold | logD ([8]; n-octanol / phosphate buffered saline pH 7.4): 2.54 ± 0.22

CC(C)(C)OC(=O)N1CCN(C(=O)Cc2ccc(Cl)c(Cl)c2)[C@@H]2[C@@H](N3CCCC3)CCC[C@@H]21 [1a]
% inhibition at 1 μM σ2 [3H]DTG (σ2 receptor [1]): 16% | Ki (MOR [2]; read-out: Ki MOR [3H]DAMGO): 260 nM | % inhibition at 1 μM σ1 (+)-[3H]pentazocine (σ1 receptor [3]): 12%

CC(C)(C)OC(=O)N1CCN(C(=O)Cc2ccc(Cl)c(Cl)c2)[C@@H]2[C@@H](N3CC[C@H](O)C3)CCC[C@@H]21 (mixture of isomers) [12a, tert‐Butyl (4aR,5S,8aS)‐ and (4aS,5R,8aR)‐4‐[2‐(3,4‐dichlorophenyl)acetyl]‐5‐[(S)‐3‐hydroxypyrrolidin‐1‐yl]‐3,4,4 a,5,6,7,8,8 a‐octahydroquinoxaline‐1(2H)‐carboxylate]
inhibition at 1 µM (MOR [4]): 9% | Ki (KOR [9]; Ki±SEM KOR [3H]U-69,593): 16 ± 2 nM | inhibition at 1 µM (σ1 receptor [10]): 0% | inhibition at 1 µM (σ2 receptor [11]): 0% | inhibition at 1 µM (DOR): 5%

COC(=O)N1CCN(C(=O)Cc2ccc(Cl)c(Cl)c2)[C@@H]2[C@@H](N3CC[C@H](O)C3)CCC[C@@H]21 (mixture of isomers) [12c, Methyl (4aR,5S,8aS)‐ and (4aS,5R,8aR)‐4‐[2‐(3,4‐dichlorophenyl)acetyl]‐5‐[(S)‐3‐hydroxypyrrolidin‐1‐yl]‐3,4,4 a,5,6,7,8,8 a‐octahydroquinoxaline‐1(2H)‐carboxylate]
expression of surface activation markers CD25, CD44 and CD69 and IFN-γ production [12]: did not modulate the activation status | anti-inflammatory effect (CD11c, IFN-γ) in DCs from KOR-deficient mice [13]: completely abrogated | inhibition at 1 µM (MOR [4]): 5% | Ki (KOR [9]; Ki±SEM KOR [3H]U-69,593): 9.2 ± 6 nM | EC50 (KOR [14]): 8.8 nM | Emax (KOR [14]; HTLA, read-out: β-Arrestin-2 E max): 82% | expression of maturation marker CD11c and IFN-γ production (mouse DCs (wild-type)): significantly reduced | EC50 (KOR [15]): 0.19 nM | Emax (KOR [15]; HEK-293T, read-out: cAMP E max): 100% | inhibition at 1 µM (σ1 receptor [10]): 0% | expression of CD11c and production of IFN-γ in human DCs (human DCs): reduced | inhibition at 1 µM (σ2 receptor [11]): 5% | Ki (DOR): 693 nM

COC(=O)N1CCN(C(=O)Cc2ccc(Cl)c(Cl)c2)[C@@H]2[C@@H](N3CC[C@@H](F)C3)CCC[C@@H]21 (mixture of isomers) [14c, Methyl (4aR,5S,8aS)‐ and (4aS,5R,8aR)‐4‐[2‐(3,4‐dichlorophenyl)acetyl]‐5‐[(R)‐3‐fluoropyrrolidin‐1‐yl]‐3,4,4 a,5,6,7,8,8 a‐ octahydroquinoxaline‐1(2H)‐carboxylate]
anti-inflammatory cytokine IL-10 in cell cultures [12]: significant upregulation | expression of surface activation markers CD25, CD44 and CD69 and IFN-γ production [12]: significantly reducing | anti-inflammatory effect (CD11c, IFN-γ) in DCs from KOR-deficient mice [13]: completely abrogated | inhibition at 1 µM (MOR [4]): 0% | expression of activation markers or cytokine release in T cells from KOR-deficient mice [16]: did not result in an altered expression | Ki (KOR [9]): 0.82 ± 0.69 nM | selectivity over the related MOR, DOR and σ receptors (KOR [9]): more than 1000 fold | IL-10 induction (human T cells): only slightly but not significantly induced | expression of surface activation markers CD25 and CD69 and IFN-γ secretion (human T cells): significantly reduce | expression of maturation marker CD11c and IFN-γ production (mouse DCs (wild-type)): significantly reduced | inhibition at 1 µM (σ1 receptor [10]): 8% | expression of CD11c and production of IFN-γ in human DCs (human DCs): reduced | Ki (σ2 receptor [11]): 962 nM | inhibition at 1 µM (DOR): 12%
